Patent US20250230193A1, “CYCLIC COMPOUND HAVING SELECTIVE KRAS INHIBITORY EFFECT ON HRAS AND NRAS” (CHUGAI SEIYAKU KABUSHIKI KAISHA, priority 2022, published 2025)

Columns and labels:
[1] = target: GDP-bound HRAS wild-type protein (Homo sapiens, UniProt P01112); test: Binding to HRAS by surface plasmon resonance (SPR), Single Cycle Kinetics
[2] = target: GDP-bound NRAS wild-type protein (Homo sapiens, UniProt P01111); test: Binding to NRAS by surface plasmon resonance (SPR), Single Cycle Kinetics
Chain of GDP-bound NRAS wild-type protein (P01111 whole entry): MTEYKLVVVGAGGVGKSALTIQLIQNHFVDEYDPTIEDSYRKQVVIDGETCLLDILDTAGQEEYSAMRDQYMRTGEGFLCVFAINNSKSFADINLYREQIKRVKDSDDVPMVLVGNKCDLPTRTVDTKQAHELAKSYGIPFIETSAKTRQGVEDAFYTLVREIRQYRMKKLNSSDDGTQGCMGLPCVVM

[3] = SPR, GDP-bound wild-type proteins

Chain of GDP-bound HRAS wild-type protein (P01112 whole entry): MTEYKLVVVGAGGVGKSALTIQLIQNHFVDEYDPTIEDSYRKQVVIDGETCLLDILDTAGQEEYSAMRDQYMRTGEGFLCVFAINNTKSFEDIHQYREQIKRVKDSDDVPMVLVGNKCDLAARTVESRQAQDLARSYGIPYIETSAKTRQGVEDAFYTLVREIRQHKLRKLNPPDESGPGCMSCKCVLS

## CCC[C@H]1C(=O)N[C@@H](C2CCCC2)C(=O)N(C)CC(=O)N(C)[C@H]2C/C=C\CCN(C2=O)[C@@H](Cc2ccc(C)cc2)C(=O)N(C)CC(=O)N[C@@H](CCc2ccc(C(F)(F)F)c(OC)c2)C(=O)N2C[C@H](OCC)C[C@H]2C(=O)NC2(CC(C)(C)C2)C(=O)N(C)[C@@H](C2CCCC2)C(=O)N(C)[C@H](C(=O)N(C)C)CC(=O)N1C [PP2992]
[1]; [3]
  HRAS/KRAS (ratio of KD value with respect to GDP-bound HRAS wild-type protein to KD value with respect to KRAS): A (a compound having 10 or more and less than 20 is denoted as A)
[2]; [3]
  NRAS/KRAS (ratio of KD value with respect to GDP-bound NRAS wild-type protein to KD value with respect to KRAS): AA (a compound having 20 or more is denoted as AA)

## CC[C@H](C)[C@@H]1NC(=O)[C@H](CC(C)C)N(C)C(=O)C[C@@H](C(=O)N2CCOCC2)N(C)C(=O)[C@H](C2CCCC2)N(C)C(=O)C2(CCOCC2)NC(=O)[C@@H]2CCCN2C(=O)[C@H](CCc2cc(F)c(C(F)(F)F)c(F)c2)NC(=O)CN(C)C(=O)[C@H](Cc2ccc(C(F)(F)F)cc2)N2CCCC[C@@H](C2=O)N(C)C(=O)CN(C)C1=O [PP0564]
[1]; SPR
  HRAS/KRAS (ratio of KD value with respect to GDP-bound HRAS wild-type protein to KD value with respect to KRAS): B (a compound having 3 or more and less than 10 is denoted as B)
[2]; SPR
  NRAS/KRAS (ratio of KD value with respect to GDP-bound NRAS wild-type protein to KD value with respect to KRAS): B (a compound having 3 or more and less than 10 is denoted as B)

## CCC[C@H]1C(=O)N[C@@H]([C@@H](C)CC)C(=O)N(C)CC(=O)N(C)[C@H]2C/C=C\CCN(C2=O)[C@@H](Cc2ccc(C)cc2)C(=O)N(C)CC(=O)N[C@@H](CCc2ccc(Cl)c(Cl)c2)C(=O)N2C[C@H](OCC)C[C@H]2C(=O)NC2(CC(C)(C)C2)C(=O)N(C)[C@@H](CC2CCC2)C(=O)N(C)[C@H](C(=O)N(C)C)CC(=O)N1C [PP2755]
[1]; class symbols
  HRAS/KRAS (ratio of KD value with respect to GDP-bound HRAS wild-type protein to KD value with respect to KRAS): A (a compound having 10 or more and less than 20 is denoted as A)
[2]; class symbols
  NRAS/KRAS (ratio of KD value with respect to GDP-bound NRAS wild-type protein to KD value with respect to KRAS): A (a compound having 10 or more and less than 20 is denoted as A)

## CCO[C@@H]1C[C@H]2C(=O)NC3(CC(C)(C)C3)C(=O)N(C)[C@@H](C3CCCC3)C(=O)N(C)[C@H](C(=O)N3CCCC3)CC(=O)N(C)[C@H]3CCCC/C=C/c4ccc(cc4)C[C@@H](C(=O)N(C)CC(=O)N[C@@H](CCc4ccc(Cl)c(Cl)c4)C(=O)N2C1)N1CC/C=C\C[C@@H](C1=O)N(C)C(=O)CN(C)C(=O)[C@H]([C@@H](C)CC)NC3=O [PP2593]
[1]; class symbols
  HRAS/KRAS (ratio of KD value with respect to GDP-bound HRAS wild-type protein to KD value with respect to KRAS): A (a compound having 10 or more and less than 20 is denoted as A)
[2]; class symbols
  NRAS/KRAS (ratio of KD value with respect to GDP-bound NRAS wild-type protein to KD value with respect to KRAS): A (a compound having 10 or more and less than 20 is denoted as A)

## CCO[C@@H]1C[C@H]2C(=O)NC3(CCC3)C(=O)N(C)[C@@H](C3CCCC3)C(=O)N(C)[C@H](C(=O)N(C)CCOC)CC(=O)N(C)[C@@H](CC(F)F)C(=O)N[C@@H]([C@@H](C)CC)C(=O)N(C)CC(=O)N(C)[C@H]3C/C=C\CCN(C3=O)[C@@H](Cc3ccc(C(F)(F)F)cc3)C(=O)N(C)CC(=O)N[C@@H](CCc3cc(F)c(C(F)(F)F)c(F)c3)C(=O)N2C1 [PP1320]
[1]; SPR, KD ratio class
  HRAS/KRAS (ratio of KD value for GDP-bound HRAS wild-type protein to KD value for KRAS): A (a compound having 10 or more and less than 20 is denoted as A)
[2]; SPR, KD ratio class
  NRAS/KRAS (ratio of KD value for GDP-bound NRAS wild-type protein to KD value for KRAS): A (a compound having 10 or more and less than 20 is denoted as A)

## CCO[C@@H]1C[C@H]2C(=O)NC3(CCC3)C(=O)N(C)[C@@H](C3CCCC3)C(=O)N(C)[C@H](C(=O)N3CCOCC3)CC(=O)N(C)[C@@H](CC)C(=O)N[C@@H]([C@@H](C)CC)C(=O)N(C)CC(=O)N(C)[C@H]3CCCCCN(C3=O)[C@@H](Cc3ccc(F)cc3)C(=O)N(C)CC(=O)N[C@@H](CCc3cc(F)c(C(F)(F)F)c(F)c3)C(=O)N2C1 [PP1176]
[1]; KD ratio, GDP-bound HRAS wild-type vs GDP-bound KRAS wild-type, SPR
  HRAS/KRAS (ratio of KD value with respect to HRAS to KD value with respect to KRAS): B (a compound having 3 or more and less than 10 is denoted as B)
[2]; KD ratio, GDP-bound NRAS wild-type vs GDP-bound KRAS wild-type, SPR
  NRAS/KRAS (ratio of KD value with respect to NRAS to KD value with respect to KRAS): B (a compound having 3 or more and less than 10 is denoted as B)
